Measurements from patent US12402610B2, “Methods and compositions for modulating innate lymphoid cell pathogenic effectors” (The Broad Institute, Inc., priority 2018, dated 2025).
Entries after “also recorded” stand apart in the source; their conditions may differ.

Tests used:
skin ILCs [1] = experiment: Alternative psoriasis model using topical imiquimod in IL-5 fate / IL-22 BFP / IL-17A GFP reporter mouse; assay type: in vivo
skin ILCs [2] = experiment: Intracellular cytokine staining of skin ILCs after IL-23 treatment; assay type: in vivo, mouse
Source text: (§1) Next, Applicants tested the prediction of a transition during disease of IL-5-expressing ILC2s into IL-22/IL-17A-expressing ILC3-like cells. Applicants generated an IL-5 fate reporter mouse from IL-5-cre-dTomato (Red5)^50 and Rosa26^flox-Stop-floxYFP, which Applicants then combined with IL-17A^GFP 51 and IL-22^BFP expression reporters (FIG. 4b). […] Moreover, cells that expressed ILC3 type cytokines no longer expressed IL-5 (FIG. 4d). […] Finally, Applicants also tested the model's prediction that there is a subset of skin ILCs in the psoriasis model that co-expresses the type 2 cytokine IL-13 with both of the type 3 cytokines IL-22 and IL-17A.
Psoriasis model. The psoriasis model used in this study is based on rIL-23 subcutaneous injections. The 500 ng in 20 μl of rIL-23 (provided by Abbvie or purchased from R&D Systems [scRNAseq experiments]) was injected daily into the ear skin of anesthetized mice in 4 consecutive days. As a control 20 μl of PBS was used with the same injection intervals. For the second challenge experiment, Applicants waited 10 days, monitoring the skin thickness before repeating 4-day injection regimen. Skin thickness was measured daily with calipers. When indicated, FTY720 (1 mg/kg) was dissolved in PBS and administered i.p on day −1, 1 and 3 of the experiment. Skin tissue was collected on day 5 for histology imaging, flow cytometry analysis or cell sorting. […]

skin ILCs [3] = experiment: IL-5 fate mapping with IL-17A GFP and IL-22 BFP reporters after IL-23 injection; assay type: in vivo, mouse
Source text: as §1
Mice. C57BL/6, Tcrd^−/− and Rosa26^flox-stop-floxYFP Ai3(RCL-EYFP) mice were purchased from the Jackson Laboratories. Rag1^−/− and Rag2^−/−IL2rg^−/− were purchased from Taconic Biosciences. IL-5 Cre, dTomato (Red5/R5) from Dr Locksley laboratory. The IL-5 fate reporter in this work was generated by crossing Red5 with Ai3(RCL-EYFP) with IL-17A^GFP 51 and IL-22^BFP generated in Applicants laboratory. In order to maximize the Cre recombination and increase the signal of Rosa26^YFP positive cells, Applicants used homozygous IL-5^dTomato, Cre. Applicants observed little to no difference in IL-23 induced skin thicknening (FIG. 8a).
Psoriasis model. […] Skin thickness was measured daily with calipers. […]

ear skin = experiment: IL-23 subcutaneous injection psoriasis model, skin thickness measured with calipers; assay type: in vivo, mouse
Source text: (§2) To determine which cells are key to initiate psoriatic disease, Applicants studied a subcutaneous IL-23 injection model, which leads to increased skin thickness after five days of daily injections (FIG. 1a, FIG. 5a). First, Applicants assessed the role of different immune cell types in this model (FIG. 1b, FIG. 5b,c). […] This is also consistent with an increased number of human ILC3s recently observed in psoriatic patients^3,4. Moreover, while γδ T cells have been implicated in a longer treatment course^2,5, analyzing Tcrd^−/− mice, which lack only γδ T cells, Applicants found no evidence that they contribute to disease initiation (FIG. 1b). […] Applicants compared disease phenotype between control mice and those treated with FTY720, which blocks signaling from the S1P1 receptor, preventing egress of T cells from secondary lymphoid tissues and limiting trafficking of induced ILC2s^7,11. […] Thus, in contrast to a model of lung inflammation, in psoriasis, tissue-resident ILCs are sufficient to drive disease pathology and are critical for amplifying the response to IL-23.
Psoriasis model. The psoriasis model used in this study is based on rIL-23 subcutaneous injections. The 500 ng in 20 μl of rIL-23 (provided by Abbvie or purchased from R&D Systems [scRNAseq experiments]) was injected daily into the ear skin of anesthetized mice in 4 consecutive days. As a control 20 μl of PBS was used with the same injection intervals. For the second challenge experiment, Applicants waited 10 days, monitoring the skin thickness before repeating 4-day injection regimen. Skin thickness was measured daily with calipers. When indicated, FTY720 (1 mg/kg) was dissolved in PBS and administered i.p on day −1, 1 and 3 of the experiment. Skin tissue was collected on day 5 for histology imaging, flow cytometry analysis or cell sorting.

[4] = tested on: circulating total white blood cells; experiment: Total circulatory white blood cell numbers after FTY720 treatment; assay type: in vivo, mouse; settings: FTY720 1 mg/kg i.p., WT and Rag1−/− mice, vs untreated
Source text: as §2
Psoriasis model. The psoriasis model used in this study is based on rIL-23 subcutaneous injections. […] Skin thickness was measured daily with calipers. […]

## CC(C)Cn1cnc2c(N)nc3ccccc3c21 [imiquimod]
Skin ILCs [1]; topically treated over 10 days
  IL-22 production, compared with IL-23 injection model: less induced
Skin ILCs [1]; topically treated over 10 days vs untreated mice
  IL-17A producing cells including exIL-5 cells: increase

## IL-23: recombinant cytokine injected subcutaneously into ear skin to induce the psoriasis model
Skin ILCs [2]; Rag1−/− mice
  cells expressing IL-22 and IL-17A that also co-express IL-13: ~20%
Skin ILCs [2]; WT and Tcrd−/− mice
  cells expressing IL-22 and IL-17A that also co-express IL-13: ~10%
Skin ILCs [3]; after IL-23 injection, fate mapping of ILC2s
  IL-22- and IL-17A-expressing cells that were ex-IL-5 producing cells: ~10%
Skin ILCs [3]; second IL-23 challenge
  number of ex-IL-5 cells producing IL-22 and IL-17A: further elevated
Ear skin; Rag1−/− mice (intact ILCs)
  increase in skin thickness over the treatment course: significant increase
Ear skin; Rag2−/− Il2rg−/− double mutant (lacks all lymphocytes)
  increase in ear thickness: did not show any increase
Ear skin; Rag2−/− Il2rg−/− mice with adoptively transferred sorted skin ILCs
  skin thickening, treated versus untreated recipient mice: significant skin thickening
Ear skin; WT mice, daily subcutaneous injections, vs PBS vehicle
  skin thickness: significantly higher; also recorded: increased
Ear skin; after the initial injection
  time for inflammation and skin thickness to revert to near-baseline levels: ≤ 10 days
Ear skin; second challenge
  phenotype after a second series of injections compared to initial response: significantly more severe

## CCCCCCCCc1ccc(CCC(N)(CO)CO)cc1 [FTY720, reference compound]
Ear skin; FTY720-treated vs untreated controls, WT or Rag1−/− mice
  psoriasis phenotype induction upon IL-23 administration (skin thickness): no difference
Ear skin; FTY720 during the primary injection
  increased susceptibility to a secondary challenge with IL-23 (skin thickness): does not impact; also recorded: also observed
[4]
  circulating total white blood cells: blocks; also recorded: reduction
